The results in this text go back to US20250304620A1, “ANTIMICROBIAL PEPTIDE AND APPLICATION THEREOF” (priority 2023, published 2025).

In brackets after ≈: the same amount, converted by molar mass. Non-standard residues stand in square brackets, D forms with d. Residues, ends and D or L forms follow the SMILES beside them. Phe(3,4-F2) = N[C@@H](Cc1ccc(F)c(F)c1)C(=O)O; 2Nal = N[C@@H](Cc1ccc2ccccc2c1)C(=O)O Where only a bound is given, the exact number is not on record here.

The subject of data set [1] is Staphylococcus aureus (NRS 384). The data set is described as follows: microbe, parasite or virus in culture. In kind it is cell-based. An excerpt: According to the Standards of Clinical and Laboratory Standards Institute (CLSI) of the USA for antimicrobial drug susceptibility test operation standards, a micronutrient serial twofold dilution method was used to determine minimum inhibitory concentrations (MICs) of all 60 peptides (S/N: LV-1˜LV-60) against Staphylococcus aureus (NRS 384). The experiment was repeated 5 times in parallel. […] An antibacterial drug Levofloxacin and an AMP Cbf-K16 (sequence of Cbf-K16: […]) were used as positive controls to evaluate the antibacterial effect of the antimicrobial peptides on Staphylococcus aureus (NRS 384).

Data set [2] relates to rabbit red blood cells. In kind it is cell-based. To be noted: red cells of rabbit, 1 h. As for the experimental part:
Fresh rabbit blood ([…]) was collected and centrifuged at 500 g for 5 min, a supernatant was discarded, and red blood cells were repeatedly washed with phosphate-buffered saline (PBS, 0.01 M, pH 7.4) until the supernatant was clear. The red blood cells (RBCs) were resuspended to 10 mL, and diluted 25-fold with PBS (0.01 M, pH 7.4) to prepare a red blood cell suspension with a concentration of about 2×10^8 RBC/mL. The AMPs were subjected to gradient dilution with normal saline (0.85%, w/v, NaCl) according to a multiple dilution method, final concentrations of the SMPs were 1.95, 3.9, 7.8, 15.6, 31.3, 62.5, 125, 250, 500, 1000, and 2000 μg/mL. 100 μl of polypeptide solution was taken and added to a 96-well plate with 5 replicates for each concentration; 100 μl of rabbit blood with a red blood cell count of about 2×10^8 RBC/mL was then added to each well, the plate was incubated at 37° C. for 1 h, centrifuged at 500 g for 5 min, 100 μl of supernatant was taken and transferred to a new 96-well plate, and an optical density (OD) at a wavelength of 541 nm was measured using a microplate reader. Triton X-100 (10 mg/mL as a starting concentration, two-fold gradient dilution) was used as a positive control group. A hemolysis rate was calculated using the following formula: Hemolysis rate (%)=[(OD541 of experimental group-OD541 of negative control group)/(OD541 of positive control group−OD541 of negative control group)]×100% Specific results of the hemolysis test are shown in Table 6. Minimum hemolytic concentration (MHC): a lowest drug concentration that can cause 10% hemolysis.

For data set [3], the system named is Methicillin-resistant Staphylococcus aureus (MRSA). The class given is in vivo, ICR mice. The note with it: topical formulation 1 mg/mL, 0.1 mL twice a day for 4 days, mouse back skin infection. The procedure:
(§1) Both female and male ICR mice were used in the test, half of the female and male mice were taken and randomly assigned into groups, with 10 mice in each group, and kept in separate cages. The mice were divided into a blank group, a model group, a positive control Methicillin group, and topical formulation groups of AMPs LV-1 to LV-30. Suspensions of Methicillin-sensitive Staphylococcus aureus (NRS 384) and Methicillin-resistant Staphylococcus aureus (MRSA) were prepared, and their concentrations were adjusted to a concentration of 5×10^6 CFU/mL for subsequent use. Hair on backs of the mice was shaved with a shaver, wound was created on back skin of each mouse using a biopsy punch, and the wound was then infected with Methicillin-sensitive Staphylococcus aureus and Methicillin-resistant Staphylococcus aureus (0.1 mL, 5×10^6 CFU/mL) to establish infection models. Except for the blank group and the model group, all other groups received corresponding topical formulations applied directly to the infected areas, with a dose of 0.1 mL, twice a day for 4 consecutive days. On the day following the final administration, skin from the infected sites of each group was aseptically collected, and an antibacterial rate was calculated.

For data set [4], the system named is Methicillin-sensitive Staphylococcus aureus (NRS 384). In kind it is in vivo, ICR mice. To be noted: topical formulation 1 mg/mL, 0.1 mL twice a day for 4 days, mouse back skin infection. As for the experimental part: as §1
The test system of data set [5] is Staphylococcus aureus (NRS 384). To be noted: 37° C., 3 h. As for the experimental part:
Trypsin (250 U/mg, pH=8.0) and AMPs (LV-1 to LV-30) were mixed in a ratio of 1:10 (w/w) and added to a reaction buffer (0.2 M sodium phosphate, 1 mM CaCl2), pH 7.5), and then incubated at 37° C. for 3 h.

On to `CC(=O)N[C@@H](CCCNC(=N)N)C(=O)N[C@@H](CCCNC(=N)N)C(=O)N[C@@H](CC(C)C)C(=O)N[C@@H](CC(C)C)C(=O)N[C@@H](Cc1ccc2ccccc2c1)C(=O)N[C@@H](CCCCN)C(=O)N[C@@H](CC(C)C)C(=O)N[C@@H](CCCCN)C(=O)N[C@@H](Cc1ccc2ccccc2c1)C(=O)N[C@@H](CCCCN)C(=O)N[C@@H](CCCNC(=N)N)C(N)=O` [LV-54] (Ac-RRLL[2Nal]KLK[2Nal]KR-NH2), for which the “MIC against Staphylococcus aureus (NRS 384)” value (“MIC … (NRS 384)” below) in data set [1] (NRS 384) is 8 µg/mL (≈ 4.86 µM). The “MHC (minimum hemolytic concentration, lowest concentration causing 10% hemolysis)” value in data set [2] is over 1000 µg/mL.

In the case of `CC(=O)N[C@@H](CCCCN)C(=O)N[C@@H](CCCCN)C(=O)N[C@@H](CC(C)C)C(=O)N[C@@H](CC(C)C)C(=O)N[C@@H](Cc1ccc(F)c(F)c1)C(=O)N[C@@H](CCCNC(=N)N)C(=O)N[C@@H](CC(C)C)C(=O)N[C@@H](CCCCN)C(=O)N[C@@H](Cc1ccc(F)c(F)c1)C(=O)N[C@@H](CCCNC(=N)N)C(=O)N[C@@H](CCCCN)C(N)=O` [LV-55] (Ac-KKLL[Phe(3,4-F2)]RLK[Phe(3,4-F2)]RK-NH2), the “MIC … (NRS 384)” value in data set [1] (NRS 384) was 4 µg/mL (≈ 2.52 µM). Further, the “MHC (minimum hemolytic concentration, lowest concentration causing 10% hemolysis)” value in data set [2] is over 1000 µg/mL.

`COc1cccc(OC)c1C(=O)N[C@@H]1C(=O)N2[C@@H]1SC(C)(C)[C@@H]2C(=O)O` [Methicillin, reference compound]: the “Inhibition rate against Methicillin-resistant Staphylococcus aureus (%)” value in data set [3] worked out at 1.05%. Also, the “Inhibition rate against Methicillin-sensitive Staphylococcus aureus (%)” value in data set [4] is 84.83%.

Take Ac-RKLLFRLKFRK-NH2 [LV-32]: in data set [1] (NRS 384), the “MIC … (NRS 384)” value stood at 4 µg/mL. For the same compound, the “MHC (minimum hemolytic concentration, lowest concentration causing 10% hemolysis)” value in data set [2] is over 1000 µg/mL.

Turning to “KFFRKLKKSVKKRAKKFFKKPRVIGVSIPF [Cbf-K16, reference compound]”, the “MIC … (NRS 384)” value in data set [1] (Staphylococcus aureus (NRS 384)) was found to be 32 µg/mL. In addition, the “Trypsin MIC” value in data set [5] (MIC vs Staphylococcus aureus (NRS 384) after trypsin treatment 1:10 (w/w)) is over 128 µg/mL. Further, the “MIC values after trypsin treatment” value in data set [5] (trypsin:AMP 1:10 (w/w), Staphylococcus aureus (NRS 384)) is given as “lost its antimicrobial activity”.
